Drawing on patent publication US20130052137A1, “PARA AMINO BENZOIC ACID BASED NANOTUBES” (priority 2009, published 2013), this text covers melting point for two compounds.

Usually melting point stands for the temperature of the solid-liquid transition. For the compound `CCCCCCCCCCCCCCCCCC(=O)Nc1ccc(C(=O)Nc2ccccn2)cc1` [Compound 1b, N-(Pyridin-2-yl)-4-stearamidobenzamide], the melting point fell in the range of 140 to 142 °C.

`CCCCCCCCCCCC(=O)Nc1ccc(C(=O)Nc2ccccn2)cc1` [Compound 1a, N-(Pyridine-2-yl)-4-dodecanamido-benzamide]: the melting point lay in the range of 152 to 154 °C.
